Source: the NIST ThermoML archive (doi:10.1016/j.jct.2016.01.021)

Test: xn = mol fraction of the nth substance listed
Conditions: 100 kPa, Liquid; for viscosity: Capillary tube (Ostwald / Ubbelohde) method; for mass density: Vibrating tube method

CCCCCCCCCC(=O)OCC [ethyl decanoate] + CCCCCCCCCCCCCCCC
Conditions	mass density [kg/m3]	viscosity [mPa·s]
298.15 K, x2 = 0	860.05	2.115
298.15 K, x2 = 0.1	848.4	2.169
298.15 K, x2 = 0.2	837.44	2.23
298.15 K, x2 = 0.3	827.17	2.298
298.15 K, x2 = 0.4	817.5	2.374
298.15 K, x2 = 0.5	808.41	2.46
298.15 K, x2 = 0.6	799.81	2.556
298.15 K, x2 = 0.7	791.69	2.664
298.15 K, x2 = 0.8	783.98	2.785
298.15 K, x2 = 0.9	776.78	2.923
303.15 K, x2 = 0	855.99	1.919
303.15 K, x2 = 0.1	844.41	1.966
303.15 K, x2 = 0.2	833.53	2.019
303.15 K, x2 = 0.3	823.32	2.079
303.15 K, x2 = 0.4	813.71	2.144
303.15 K, x2 = 0.5	804.69	2.219
303.15 K, x2 = 0.6	796.15	2.303
303.15 K, x2 = 0.7	788.08	2.396
303.15 K, x2 = 0.8	780.42	2.501
303.15 K, x2 = 0.9	773.27	2.618
308.15 K, x2 = 0	851.92	1.75
308.15 K, x2 = 0.1	840.42	1.79
308.15 K, x2 = 0.2	829.61	1.837
308.15 K, x2 = 0.3	819.48	1.89
308.15 K, x2 = 0.4	809.93	1.948
308.15 K, x2 = 0.5	800.96	2.013
308.15 K, x2 = 0.6	792.49	2.086
308.15 K, x2 = 0.7	784.47	2.167
308.15 K, x2 = 0.8	776.87	2.257
308.15 K, x2 = 0.9	769.76	2.358
313.15 K, x2 = 0	847.85	1.603
313.15 K, x2 = 0.1	836.43	1.639
313.15 K, x2 = 0.2	825.69	1.68
313.15 K, x2 = 0.3	815.62	1.726
313.15 K, x2 = 0.4	806.15	1.777
313.15 K, x2 = 0.5	797.24	1.835
313.15 K, x2 = 0.6	788.82	1.899
313.15 K, x2 = 0.7	780.86	1.97
313.15 K, x2 = 0.8	773.31	2.049
313.15 K, x2 = 0.9	766.26	2.137
318.15 K, x2 = 0	843.77	1.474
318.15 K, x2 = 0.1	832.43	1.506
318.15 K, x2 = 0.2	821.76	1.544
318.15 K, x2 = 0.3	811.77	1.585
318.15 K, x2 = 0.4	802.35	1.63
318.15 K, x2 = 0.5	793.51	1.68
318.15 K, x2 = 0.6	785.15	1.737
318.15 K, x2 = 0.7	777.25	1.799
318.15 K, x2 = 0.8	769.76	1.869
318.15 K, x2 = 0.9	762.74	1.947
323.15 K, x2 = 0	839.69	1.362
323.15 K, x2 = 0.1	828.42	1.39
323.15 K, x2 = 0.2	817.83	1.423
323.15 K, x2 = 0.3	807.9	1.46
323.15 K, x2 = 0.4	798.56	1.501
323.15 K, x2 = 0.5	789.78	1.546
323.15 K, x2 = 0.6	781.48	1.595
323.15 K, x2 = 0.7	773.64	1.651
323.15 K, x2 = 0.8	766.2	1.712
323.15 K, x2 = 0.9	759.24	1.779

CCCCCCCCCCCC(=O)OCC [ethyl dodecanoate] + CCCCCCCCCCCCCCCC
Conditions	mass density [kg/m3]	viscosity [mPa·s]
298.15 K, x2 = 0	858.19	3.015
298.15 K, x2 = 0.1	848.2	2.977
298.15 K, x2 = 0.2	838.49	2.954
298.15 K, x2 = 0.3	829.03	2.935
298.15 K, x2 = 0.4	819.83	2.925
298.15 K, x2 = 0.5	810.88	2.923
298.15 K, x2 = 0.6	802.18	2.933
298.15 K, x2 = 0.7	793.76	2.952
298.15 K, x2 = 0.7999	785.59	2.98
298.15 K, x2 = 0.9	777.65	3.024
303.15 K, x2 = 0	854.3	2.704
303.15 K, x2 = 0.1	844.34	2.673
303.15 K, x2 = 0.2	834.69	2.65
303.15 K, x2 = 0.3	825.27	2.632
303.15 K, x2 = 0.4	816.11	2.624
303.15 K, x2 = 0.5	807.21	2.623
303.15 K, x2 = 0.6	798.55	2.629
303.15 K, x2 = 0.7	790.18	2.645
303.15 K, x2 = 0.7999	782.04	2.668
303.15 K, x2 = 0.9	774.14	2.706
308.15 K, x2 = 0	850.4	2.439
308.15 K, x2 = 0.1	840.49	2.412
308.15 K, x2 = 0.2	830.88	2.392
308.15 K, x2 = 0.3	821.51	2.377
308.15 K, x2 = 0.4	812.4	2.368
308.15 K, x2 = 0.5	803.54	2.367
308.15 K, x2 = 0.6	794.93	2.372
308.15 K, x2 = 0.7	786.59	2.384
308.15 K, x2 = 0.7999	778.5	2.403
308.15 K, x2 = 0.9	770.64	2.433
313.15 K, x2 = 0	846.5	2.213
313.15 K, x2 = 0.1	836.63	2.188
313.15 K, x2 = 0.2	827.07	2.169
313.15 K, x2 = 0.3	817.75	2.155
313.15 K, x2 = 0.4	808.68	2.149
313.15 K, x2 = 0.5	799.87	2.146
313.15 K, x2 = 0.6	791.3	2.15
313.15 K, x2 = 0.7	783.01	2.16
313.15 K, x2 = 0.7999	774.96	2.179
313.15 K, x2 = 0.9	767.14	2.203
318.15 K, x2 = 0	842.6	2.016
318.15 K, x2 = 0.1	832.77	1.996
318.15 K, x2 = 0.2	823.26	1.978
318.15 K, x2 = 0.3	813.99	1.966
318.15 K, x2 = 0.4	804.97	1.959
318.15 K, x2 = 0.5	796.19	1.957
318.15 K, x2 = 0.6	787.68	1.959
318.15 K, x2 = 0.7	779.43	1.967
318.15 K, x2 = 0.7999	771.42	1.981
318.15 K, x2 = 0.9	763.64	2.003
323.15 K, x2 = 0	838.7	1.846
323.15 K, x2 = 0.1	828.91	1.832
323.15 K, x2 = 0.2	819.45	1.813
323.15 K, x2 = 0.3	810.22	1.801
323.15 K, x2 = 0.4	801.25	1.795
323.15 K, x2 = 0.5	792.52	1.793
323.15 K, x2 = 0.6	784.05	1.795
323.15 K, x2 = 0.7	775.84	1.8
323.15 K, x2 = 0.7999	767.88	1.813
323.15 K, x2 = 0.9	760.14	1.833
